Assay results from US20230192661A1, “1, 4, 5, 6-TETRAHYDROPYRIMIDINE-2-AMINE DERIVATIVE” (UBE Corporation, priority 2020, published 2023).

Assays:
αvβ6 = biological target: T1, αvβ6 (Homo sapiens, UniProt P06756+P18564); test: αvβ6 cell adhesion inhibition test (HT-29 cells on recombinant human LAP protein); assay type: cell-based; settings: recombinant human LAP coating, 200 μM MnCl2, 1 hour, read-out: IC50 (rate of inhibition of cell adhesion, αvβ6)
T1 construct: endogenous in cells; host or cells: HT-29 cells
T1 sequence (P06756 31-889 limits assumed): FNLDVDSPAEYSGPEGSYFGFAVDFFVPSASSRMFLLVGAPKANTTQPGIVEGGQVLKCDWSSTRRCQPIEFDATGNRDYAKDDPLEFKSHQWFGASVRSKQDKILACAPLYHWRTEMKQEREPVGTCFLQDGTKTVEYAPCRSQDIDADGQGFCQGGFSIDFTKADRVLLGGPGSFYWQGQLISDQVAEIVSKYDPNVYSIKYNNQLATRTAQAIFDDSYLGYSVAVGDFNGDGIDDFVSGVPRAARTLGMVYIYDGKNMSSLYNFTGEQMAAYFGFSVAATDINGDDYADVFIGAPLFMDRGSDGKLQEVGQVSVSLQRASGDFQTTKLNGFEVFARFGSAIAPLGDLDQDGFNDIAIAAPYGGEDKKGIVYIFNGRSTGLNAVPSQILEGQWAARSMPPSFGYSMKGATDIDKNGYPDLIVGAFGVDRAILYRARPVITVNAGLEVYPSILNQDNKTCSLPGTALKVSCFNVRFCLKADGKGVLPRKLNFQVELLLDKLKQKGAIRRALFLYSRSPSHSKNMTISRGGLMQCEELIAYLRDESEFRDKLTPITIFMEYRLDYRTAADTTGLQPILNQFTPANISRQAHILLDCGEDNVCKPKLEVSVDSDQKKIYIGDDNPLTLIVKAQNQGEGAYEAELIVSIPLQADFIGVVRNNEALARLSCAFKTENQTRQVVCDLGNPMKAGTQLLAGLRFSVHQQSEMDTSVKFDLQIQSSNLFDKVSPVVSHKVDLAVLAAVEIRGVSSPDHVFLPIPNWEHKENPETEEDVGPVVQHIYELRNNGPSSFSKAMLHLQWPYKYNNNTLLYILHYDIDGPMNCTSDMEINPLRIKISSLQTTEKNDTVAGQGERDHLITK
T1 sequence (P06756 891-1048 limits assumed): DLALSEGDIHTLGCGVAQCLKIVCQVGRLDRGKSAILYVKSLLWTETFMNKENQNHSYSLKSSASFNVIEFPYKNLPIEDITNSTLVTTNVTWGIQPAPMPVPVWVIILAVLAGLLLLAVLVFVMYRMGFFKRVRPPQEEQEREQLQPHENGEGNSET
T1 sequence (P18564 22-788): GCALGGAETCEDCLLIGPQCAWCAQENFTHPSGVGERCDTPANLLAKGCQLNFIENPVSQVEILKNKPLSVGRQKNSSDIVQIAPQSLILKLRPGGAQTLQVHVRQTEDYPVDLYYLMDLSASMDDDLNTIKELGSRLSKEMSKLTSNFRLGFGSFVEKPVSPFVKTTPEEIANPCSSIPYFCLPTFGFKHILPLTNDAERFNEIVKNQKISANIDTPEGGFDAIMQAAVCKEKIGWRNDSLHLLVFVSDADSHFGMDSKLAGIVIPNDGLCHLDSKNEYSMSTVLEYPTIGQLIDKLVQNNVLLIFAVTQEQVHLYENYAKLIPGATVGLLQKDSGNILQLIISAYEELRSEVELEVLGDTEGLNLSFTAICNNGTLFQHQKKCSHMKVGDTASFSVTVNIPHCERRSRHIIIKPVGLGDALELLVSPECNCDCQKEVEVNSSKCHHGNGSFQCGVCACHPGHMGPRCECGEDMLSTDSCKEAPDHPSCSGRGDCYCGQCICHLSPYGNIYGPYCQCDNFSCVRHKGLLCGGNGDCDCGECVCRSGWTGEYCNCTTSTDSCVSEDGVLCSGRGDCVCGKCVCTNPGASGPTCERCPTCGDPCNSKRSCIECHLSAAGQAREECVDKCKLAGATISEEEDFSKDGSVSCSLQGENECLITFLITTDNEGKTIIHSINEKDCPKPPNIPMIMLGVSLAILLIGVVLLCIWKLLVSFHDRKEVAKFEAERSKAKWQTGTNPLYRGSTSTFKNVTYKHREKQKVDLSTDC
Procedure: Test Example 2 was performed by partially modifying the method of Henderson et al. (Nat Med., 19 (12), 1617-24, 2013). In Test Example 2, the same reagents as in Test Example 1 were used unless otherwise specified.
Recombinant human LAP protein (manufactured by R&D Systems, Inc., 246-LP-025) was prepared at […] with PBS, dispensed at 100 μL/well to a 96-well plate, and left standing overnight. The plate was washed with HBSS, then subjected to blocking treatment with DMEM containing 1% BSA, and used as a coated plate in the adhesion test.
HT-29 cells cultured in McCoy's 5A medium (manufactured by Thermo Fisher Scientific, Inc., 16600) containing 10% FBS and 1% penicillin/streptomycin/amphotericin B were recovered and suspended in DMEM containing 0.1% BSA and 200 μM MnCl2 to prepare a cell suspension. A test compound was added thereto.
The cell suspension of 5×10^5 cells/mL containing the test compound was added at 100 μL/well to the coated plate and left standing for 1 hour in a 5% CO2 incubator (37° C.). One hour later, the supernatant was removed, and the plate was washed with HBSS containing 200 μM MnCl2. The cells that adhered to each well in the plate were stained with crystal violet, and the cells were lysed, followed by absorbance measurement. Inhibition without substrate coating was defined as 100% inhibition, and inhibition when DMSO was added instead of the test compound was defined as 0% inhibition. The rate of inhibition of cell adhesion by the test compound was calculated according to the following expression.
Rate of inhibition of cell adhesion (%)=[1−{(Absorbance in the case of adding the test compound)−(Absorbance without substrate coating)}/{(Absorbance in the case of adding DMS)−(Absorbance without substrate coating)}]×100
An IC50 value was calculated from the rate of inhibition of cell adhesion by the test compound. A: IC50<3 nM, B: 3 nM≤IC50<10 nM, C: 10 nM≤IC50<30 nM, D: 30 nM≤IC50<100 nM, or E: IC50≥100 nM.

[1] = Transcellular transport test using Caco2 cell; assay type: in vitro ADME; settings: human, Caco-2; Caco2 monolayer, A-to-B, 10 μM compound, pH 7.4, 90 minutes
Procedure: Caco2 cells (purchased from ATCC) were cultured in DMEM medium (Thermo Fisher Scientific, Inc., 11965) containing 10% FBS (Thermo Fisher Scientific, Inc., 10082) and 1% penicillin/streptomycin/amphotericin B (Thermo Fisher Scientific, Inc., 15240). A transcellular transport test was carried out in accordance with MultiScreen Caco2 Drug Transport Assembly in a 96-well system (Application Note AN1727EN, MultiScreen Caco-2 Assay System, Merck) by partially modifying it. The Caco2 cells were inoculated at a cell density of 4×10^4 cells/well onto a micropore polycarbonate insert of a 96-well plate (Merck, Millcell-96 culture insert plate 0.4 μm pore size, well membrane area=0.11 cm^2, PSHT004S5) and cultured for 20 to 22 days, and the resulting monolayer was used in the transcellular transport test. The medium of the inoculated cells was replaced with a fresh one every 3 to 4 days.
Apical-to-basolateral (A-to-B) transport in the Caco2 cell monolayer membrane was performed by using HBSS (Thermo Fisher Scientific, Inc., 14025) medium (pH=7.4) containing 20 mM HEPES (Thermo Fisher Scientific, Inc., 15630), and adding HEPES-containing HBSS medium containing 10 μM compound (a 10 mM solution of the compound in DMSO was added at a 1000-fold dilution; final DMSO concentration: 0.1%) at 75 μL/well to the apical side and HEPES-containing HBSS medium supplemented with no compound at 250 μL/well to the basolateral side, followed by culture at 37° C. for 90 minutes. After culture, a 100 μL aliquot was collected from the basolateral side, and the concentration of a permeated compound was measured by LC-MS/MS under measurement conditions mentioned later. Papp (apparent permeability; cm/sec) was calculated from the determined concentration. Papp was determined according to the expression given below by calculating the slope (dA/dt; nmol/sec) of a straight line drawn between two points 0 minutes and zero amount of the compound in a graph plotted with an assay time (90 min) on the abscissa against the amount of the compound in the solution on the permeated side on the ordinate. As for an assay concentration, the concentration in the compound in the HEPES-containing HBSS medium containing the added compound was measured by UV-HPLC under measurement conditions mentioned later.
Papp (cm/sec)=C0×S×(dA/dt)
C0: assay concentration, S: plate membrane area=0.11 cm^2

Row | SMILES | IC50 (αvβ6) [nM] | Papp A→B at 90 min, 10 μM [1] [×10⁻⁶ cm/s]
1 | O=C(O)C[C@H](NC(=O)CNC(=O)c1cc(NC2=NCC(F)CN2)c2cn[nH]c2c1)c1cc(Cl)cc(Cl)c1 (stereo partly drawn) [Example 17-(b), (3S)-3-(3,5-dichlorophenyl)-3-(2-(4-((5-fluoro-1,4,5,6-tetrahydropyrimidin-2-yl)amino)-1H-indazole-6-carboxamido)acetamido)propanoic acid] | 3 to 10 | > 1
2 | O=C(O)C[C@H](NC(=O)CNC(=O)c1cc(NC2=NCC(F)CN2)c2cn[nH]c2c1)c1cc(Cl)cc(Br)c1 (stereo partly drawn) [Example 18-(b), (3S)-3-(3-bromo-5-chlorophenyl)-3-(2-(4-((5-fluoro-1,4,5,6-tetrahydropyrimidin-2-yl)amino)-1H-indazole-6-carboxamido)acetamido)propanoic acid] | < 3 | > 1
3 | O=C(O)C[C@H](NC(=O)CNC(=O)c1cc(NC2=NCC(F)CN2)c2cn[nH]c2c1)c1cc(Br)cc(Br)c1 (stereo partly drawn) [Example 19-(b), (3S)-3-(3,5-dibromophenyl)-3-(2-(4-((5-fluoro-1,4,5,6-tetrahydropyrimidin-2-yl)amino)-1H-indazole-6-carboxamido)acetamido)propanoic acid] | < 3 | > 1
4 | O=C(O)C[C@H](NC(=O)CNC(=O)c1cc(NC2=NCC(F)CN2)c2cn[nH]c2c1)c1cc(Br)cc(I)c1 (stereo partly drawn) [Example 20-(b), (3S)-3-(3-bromo-5-iodophenyl)-3-(2-(4-((5-fluoro-1,4,5,6-tetrahydropyrimidin-2-yl)amino)-1H-indazole-6-carboxamido)acetamido)propanoic acid] | < 3 | > 1
5 | O=C(O)C[C@H](NC(=O)CNC(=O)c1cc(NC2=NCC(F)CN2)c2cn[nH]c2c1)c1cc(Cl)cc(I)c1 (stereo partly drawn) [Example 21-(b), (3S)-3-(3-chloro-5-iodophenyl)-3-(2-(4-((5-fluoro-1,4,5,6-tetrahydropyrimidin-2-yl)amino)-1H-indazole-6-carboxamido)acetamido)propanoic acid] | < 3 | > 1
6 | O=C(O)C[C@H](NC(=O)CNC(=O)c1cc(NC2=NCC(F)CN2)c2cn[nH]c2c1)c1cc(Cl)ccc1F (stereo partly drawn) [Example 22-(b), (3S)-3-(5-chloro-2-fluorophenyl)-3-(2-(4-((5-fluoro-1,4,5,6-tetrahydropyrimidin-2-yl)amino)-1H-indazole-6-carboxamido)acetamido)propanoic acid] | 3 to 10 | > 1
7 | O=C(O)C[C@H](NC(=O)CNC(=O)c1cc(NC2=NCC(F)CN2)c2cn[nH]c2c1)c1cc(Br)ccc1F (stereo partly drawn) [Example 23-(b), (3S)-3-(5-bromo-2-fluorophenyl)-3-(2-(4-((5-fluoro-1,4,5,6-tetrahydropyrimidin-2-yl)amino)-1H-indazole-6-carboxamido)acetamido)propanoic acid] | 3 to 10 | > 1
8 | O=C(O)C[C@H](NC(=O)CNC(=O)c1cc(NC2=NCC(F)CN2)c2cn[nH]c2c1)c1cc(OC(F)F)cc(C(F)(F)F)c1 (stereo partly drawn) [Example 24-(b), (3S)-3-(3-(difluoromethoxy)-5-(trifluoromethyl)phenyl)-3-(2-(4-((5-fluoro-1,4,5,6-tetrahydropyrimidin-2-yl)amino)-1H-indazole-6-carboxamido)acetamido)propanoic acid] | < 3 | 0.5 to 1
9 | O=C(O)C[C@H](NC(=O)CNC(=O)c1cc(NC2=NCC(F)CN2)c2cn[nH]c2c1)c1cc(Cl)cc(OC(F)F)c1 (stereo partly drawn) [Example 25-(b), (3S)-3-(3-chloro-5-(difluoromethoxy)phenyl)-3-(2-(4-((5-fluoro-1,4,5,6-tetrahydropyrimidin-2-yl)amino)-1H-indazole-6-carboxamido)acetamido)propanoic acid] | < 3 | > 1
10 | O=C(O)C[C@H](NC(=O)CNC(=O)c1cc(NC2=NCC(F)CN2)c2cn[nH]c2c1)c1cc(Br)cc(OC(F)F)c1 (stereo partly drawn) [Example 26-(b), (3S)-3-(3-bromo-5-(difluoromethoxy)phenyl)-3-(2-(4-((5-fluoro-1,4,5,6-tetrahydropyrimidin-2-yl)amino)-1H-indazole-6-carboxamido)acetamido)propanoic acid] | < 3 | > 1
11 | O=C(O)C[C@H](NC(=O)CNC(=O)c1cc(NC2=NCC(F)CN2)c2cn[nH]c2c1)c1ccc(F)c(OC(F)F)c1 (stereo partly drawn) [Example 27-(b), (3S)-3-(3-(difluoromethoxy)-4-fluorophenyl)-3-(2-(4-((5-fluoro-1,4,5,6-tetrahydropyrimidin-2-yl)amino)-1H-indazole-6-carboxamido)acetamido)propanoic acid] | 3 to 10 | > 1
12 | O=C(O)C[C@H](NC(=O)CNC(=O)c1cc(NC2=NCC(F)CN2)c2cn[nH]c2c1)c1cc(OC(F)F)ccc1F (stereo partly drawn) [Example 28-(b), (3S)-3-(5-(difluoromethoxy)-2-fluorophenyl)-3-(2-(4-((5-fluoro-1,4,5,6-tetrahydropyrimidin-2-yl)amino)-1H-indazole-6-carboxamido)acetamido)propanoic acid] | < 3 | > 1
13 | O=C(O)C[C@H](NC(=O)CNC(=O)c1cc(NC2=NCC(F)CN2)c2cn[nH]c2c1)c1cc(OC(F)F)cc(-n2cccn2)c1 (stereo partly drawn) [Example 29-(b), (3S)-3-(3-(difluoromethoxy)-5-(1H-pyrazol-1-yl)phenyl)-3-(2-(4-((5-fluoro-1,4,5,6-tetrahydropyrimidin-2-yl)amino)-1H-indazole-6-carboxamido)acetamido)propanoic acid] | < 3 | 0.1 to 0.5
14 | O=C(O)C[C@H](NC(=O)CNC(=O)c1cc(NC2=NCC(F)CN2)c2cn[nH]c2c1)c1cc(OC(F)F)cc(OC(F)F)c1 (stereo partly drawn) [Example 30-(b), (3S)-3-(3,5-bis(difluoromethoxy)phenyl)-3-(2-(4-((5-fluoro-1,4,5,6-tetrahydropyrimidin-2-yl)amino)-1H-indazole-6-carboxamido)acetamido)propanoic acid] | < 3 | 0.5 to 1
15 | O=C(O)C[C@H](NC(=O)CNC(=O)c1cc(NC2=NCC(F)CN2)c2cn[nH]c2c1)c1cc(Cl)cc(OC(F)(F)F)c1 (stereo partly drawn) [Example 31-(b), (3S)-3-(3-chloro-5-(trifluoromethoxy)phenyl)-3-(2-(4-((5-fluoro-1,4,5,6-tetrahydropyrimidin-2-yl)amino)-1H-indazole-6-carboxamido)acetamido)propanoic acid] | < 3 | > 1
16 | O=C(O)C[C@H](NC(=O)CNC(=O)c1cc(NC2=NCC(F)CN2)c2cn[nH]c2c1)c1cc(Br)cc(OC(F)(F)F)c1 (stereo partly drawn) [Example 32-(b), (3S)-3-(3-bromo-5-(trifluoromethoxy)phenyl)-3-(2-(4-((5-fluoro-1,4,5,6-tetrahydropyrimidin-2-yl)amino)-1H-indazole-6-carboxamido)acetamido)propanoic acid] | < 3 | > 1
